Earlier results in patent publication US20130137664A1, “LOW-DOSED SOLID ORAL DOSAGE FORMS FOR HRT” (BAYER INTELLECTUAL PROPERTY GMBH, priority 2010, published 2013).

System: moderate or severe hot flushes in menopausal women
Conditions: 2 mg E2

Question: For `C[C@]12CC[C@@H]3c4ccc(O)cc4CC[C@H]3[C@@H]1CC[C@@H]2O` [E2, estradiol], which estrogen-related adverse events is on record?
Answer: increased
